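Step 1: Grow cells in 96-well plates. Step 2: Expose to compound for 48 hours at 5 concentrations. Step 3: Interpolate endpoints linearly; if unreached, use highest concentration. The concentration for full growth arrest is given as TGI.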
How the values were obtained:
Test in all cases: NCI-60 cell line screen, 48 h
[1] = system: UACC-257 melanoma
[2] = system: OVCAR-8 ovarian
[3] = system: BT-549 breast
[4] = system: SK-OV-3 ovarian
[5] = system: SK-MEL-2 melanoma
[6] = system: SNB-75 CNS
[7] = system: MDA-MB-231 breast
[8] = system: MALME-3M melanoma
[9] = system: A498 renal
[10] = system: LOX IMVI melanoma

SMILES	TGI [1]	TGI [2]	TGI [3]	TGI [4]	TGI [5]	TGI [6]	TGI [7]	TGI [8]	TGI [9]	TGI [10]
CC(C)CCC1(O)O[C@H]2C[C@H]3[C@@H]4CCC5CC(=O)C=C[C@]5(C)[C@H]4CC[C@]3(C)[C@H]2[C@@H]1C (stereo not given in full)	28.3 µM	30.5 µM	27.3 µM	32.9 µM	29.6 µM	28 µM	28.2 µM	29.5 µM	28.5 µM	26.3 µM
CC(C)OP(=O)(CN(C)/C(F)=N\C(F)(F)F)OC(C)C	> 100 µM	> 100 µM	> 100 µM	> 100 µM	> 100 µM	> 100 µM	> 100 µM	> 100 µM	> 100 µM	> 100 µM
CCOP(=O)(/C=C\n1cnc2c(=O)n(C(C)=O)c(N)nc21)OCC	> 100 µM	> 100 µM	> 100 µM	> 100 µM	–	> 100 µM	> 100 µM	–	> 100 µM	> 100 µM
NNC(=O)c1c(Cl)c(Cl)c(Cl)c(Cl)c1-c1nc2ccccc2[nH]1	28.1 µM	> 100 µM	46.5 µM	59.2 µM	29.4 µM	38.2 µM	> 100 µM	37.9 µM	49.9 µM	30.3 µM
COC(=O)CC1(CNC(=O)OCc2ccccc2)OCCO1	> 100 µM	> 100 µM	> 100 µM	> 100 µM	> 100 µM	> 100 µM	> 100 µM	> 100 µM	> 100 µM	> 100 µM
O=c1[nH]c2ccc(CC(=S)N3CCOCC3)cc2s1	> 100 µM	> 100 µM	> 100 µM	> 100 µM	> 100 µM	–	> 100 µM	> 100 µM	> 100 µM	> 100 µM
O=C(CSc1nc(=O)[nH]c2nc[nH]c12)Nc1ccccc1	> 100 µM	> 100 µM	> 100 µM	> 100 µM	> 100 µM	> 100 µM	> 100 µM	> 100 µM	> 100 µM	> 100 µM
COC(=O)C(CCC1C=CCC1)N=Cc1ccccc1 (stereo not given)	> 100 µM	> 100 µM	> 100 µM	> 100 µM	> 100 µM	> 100 µM	> 100 µM	–	> 100 µM	> 100 µM
CC(=O)O[C@H]1C[C@]2(C)C(CCC3O[C@@]32C)[C@@]2(CC(c3ccoc3)OC2O)[C@@H]1C (stereo not given in full)	> 100 µM	> 100 µM	> 100 µM	> 100 µM	> 100 µM	> 100 µM	> 100 µM	–	> 100 µM	> 100 µM
Cc1csc2nc(-c3ccc([N+](=O)[O-])cc3)c(/C=N/N=C(N)N)n12	3.05 µM	2.68 µM	0.211 µM	3.11 µM	2.86 µM	2.97 µM	3.52 µM	3.61 µM	3.46 µM	3.63 µM
CC1(c2ccc(Cl)cc2)CC(c2ccc(Cl)cc2)=C(C#N)C(=C(C#N)C#N)N1 (stereo not given)	37.1 µM	34 µM	42.2 µM	31.2 µM	63.4 µM	34.7 µM	55.8 µM	32.3 µM	40 µM	33.6 µM

— PubChem BioAssay (NCI)
